Our source for the cytotoxicity values is ChEMBL document CHEMBL3507680, “University of Dundee, Gates Library screen for HepG2 cell viability”.

This data set is described as follows: Human HepG2 cell viability assay in 384 well format. The format is toxicity, cell-based. Set-up: dose 125 nL, time 70.5 hour; cytotoxicity at 70.5 h: concentration not given beside the values. The following applies: HepG2 cells, read-out: Inhibition.

Turning to `NC(=O)Cn1ccc(O)c(Cc2ccc(Cl)cc2Cl)c1=O`, the cytotoxicity at 70.5 h stood at 3.22%.

Turning to `O=c1[nH]cnc2[nH]c(N3CCCCC3)nc12`, the cytotoxicity at 70.5 h is -5.16%.

With `O=C(NCC(F)(F)C(F)F)c1ccncc1`, the cytotoxicity at 70.5 h is -8.69%.

Take `Cc1cc(C(=O)NCc2cccn2C)nn1C`: the cytotoxicity at 70.5 h was 15.6%.

As for `COc1ccnc(NCc2ccccc2Cn2cccn2)n1`, the cytotoxicity at 70.5 h was -1.62%.

Consider `COc1ccc(-c2cc(N)on2)cc1OC`, for which the cytotoxicity at 70.5 h is -2.02%.

Consider `Cn1c(=O)c2cc(C(=O)NCCc3ccccc3)ccc2n(C)c1=O`, for which the cytotoxicity at 70.5 h was -1.15%.

On to `CC(C)CCC(=O)N1CCN(C(=O)c2ccc(-n3cccn3)cc2)CC1`, for which the cytotoxicity at 70.5 h is -3.97%.

Take `Cc1nc2c(Nc3cccc(C#N)c3)nc(N)nc2n1C`: the cytotoxicity at 70.5 h amounted to 4%.

In the case of `O=C1CN(c2ccc(CNC(=O)Nc3nnc(C4CC4)s3)cc2)CCN1`, the cytotoxicity at 70.5 h was determined as 21.5%.

`CC(Cc1ccco1)NC(=O)Nc1ccc(S(C)(=O)=O)nc1` (stereo not drawn): the cytotoxicity at 70.5 h is -2.2%.

Regarding `Cn1c(=O)oc2cc(S(=O)(=O)N3CCC(c4ccccc4)C3)c(Cl)cc21` (stereo not drawn), the cytotoxicity at 70.5 h was found to be 25%.

Take `Cc1cc(N2CCC(O)CC2)nc(C)n1`: the cytotoxicity at 70.5 h stood at 1.14%.

As to `Cc1c(C(=O)O)sc2nc(C(F)(F)F)ccc12`, the cytotoxicity at 70.5 h was -18.5%.

On to `CCC(NC(=O)CN(C)Cc1ccc(C)o1)c1ccc(Br)cc1` (stereo not drawn), for which the cytotoxicity at 70.5 h was -1.78%.

In the case of `Cc1cc2cc(Nc3c(C#N)c(=O)n(C)c(=O)n3C)ccc2[nH]1`, the cytotoxicity at 70.5 h was -5.45%.

For `Cc1cc(S(=O)(=O)N(CC(N)=O)CC(C)C)ccc1Br`, the cytotoxicity at 70.5 h came to 11.4%.

Regarding `Cc1ncc(CN(C)Cc2nc3cc(Cl)ccc3n2C)s1`, the cytotoxicity at 70.5 h is -18.2%.

On to `O=C(COCC(F)(F)F)Nc1nncs1`, for which the cytotoxicity at 70.5 h stood at 10.8%.

Regarding `O=C(c1cccnc1)N1CCC(Oc2cccc(C(F)(F)F)c2)CC1`, the cytotoxicity at 70.5 h is -4.72%.

For `NCc1n[nH]c(=O)n1-c1cccc(Cl)c1Cl`, the cytotoxicity at 70.5 h is -3.71%.

As to `CCC(CO)N(Cc1cccnc1)C(=O)c1ccc(C(F)(F)F)nc1O` (stereo not drawn), the cytotoxicity at 70.5 h is -18.7%.

Consider `CCCn1cc(-c2cc(-c3ccoc3)c(C#N)c(N)n2)c(C)n1`, for which the cytotoxicity at 70.5 h is 5.86%.

With `CN1[C@H]2CC[C@@H]1CN(C(=O)c1nnc3n1CCCCC3)CC2`, the cytotoxicity at 70.5 h is -9.52%.

`CCCc1nc(C)c(CNc2nc(C)nc3onc(C)c23)s1`: the cytotoxicity at 70.5 h came out at 2.81%.

As for `CNc1nc(C)c(C(=O)N2CCC(C(O)Cc3ccccc3)CC2)s1` (stereo not drawn), the cytotoxicity at 70.5 h was -11.8%.

Consider `CCN1CCc2[nH]cnc2C12CCN(C(=O)CCCn1cncn1)CC2`, for which the cytotoxicity at 70.5 h was -1.47%.

As to `CSc1ccccc1C(=O)N(C)Cc1nncn1C(C)C`, the cytotoxicity at 70.5 h is -0.541%.

Take `CC(=O)c1ccccc1-c1nc(CC2CCN(C)CC2)no1`: the cytotoxicity at 70.5 h was found to be 16.1%.

For the compound `COc1ccc(CN2CCCC(Nc3cccc(F)c3)C2)cc1O` (stereo not drawn), the cytotoxicity at 70.5 h is -2.89%.

For `O[C@H]1[C@H](n2cc(-c3cccnc3)nn2)c2ccccc2C12CCNCC2`, the cytotoxicity at 70.5 h worked out at 0.63%.

Regarding `Cc1cc(CN2CCC(CNC(=O)c3ccc(O)c(Cl)c3)C2)[nH]n1` (stereo not drawn), the cytotoxicity at 70.5 h is -4.96%.

On to `CC(=O)N1CCc2c(nc(-c3ccccn3)nc2N(C)CC(O)CO)C1` (stereo not drawn), for which the cytotoxicity at 70.5 h is -9.73%.

On to `COc1ccccc1CN1C(=O)O[C@@H]2CN(c3nccs3)C[C@@H]21`, for which the cytotoxicity at 70.5 h was 1.12%.

As for `CCn1cc(CN(C)C(=O)c2cccc(CCC(C)(C)O)c2)cn1`, the cytotoxicity at 70.5 h is -3.4%.

With `CCc1cc(NC2CCN(S(C)(=O)=O)CC2)n2nc(C)c(C)c2n1`, the cytotoxicity at 70.5 h is -1.04%.

For `CN1C(=O)C(c2ccccc2)CC12CCN(CCOCCO)CC2` (stereo not drawn), the cytotoxicity at 70.5 h came out at 3.55%.

As to `COc1cccc(-c2noc(-c3ccc(NCC4CC4)nc3)n2)c1OC`, the cytotoxicity at 70.5 h was -2.04%.

In the case of `CN(C)C(=O)c1ccc2c(c1)N(C)C(CC(=O)NCc1ccno1)CO2` (stereo not drawn), the cytotoxicity at 70.5 h is -4.48%.

As to `CC(=O)N1CCc2c(nc(-c3ccncc3)nc2N(C)CC(O)CO)C1` (stereo not drawn), the cytotoxicity at 70.5 h was -9.59%.

On to `CN(C)c1ccccc1C(=O)N1C[C@@H](CN2CCOCC2)[C@@H](CO)C1`, for which the cytotoxicity at 70.5 h was -3.02%.

`O=C(Cc1cccnc1)N1CCC(OCc2ccccc2)CC1`: the cytotoxicity at 70.5 h is -11.4%.

For `Cc1ccc(CN2CCN(CC3CC3)[C@@H]3CS(=O)(=O)C[C@@H]32)cc1C`, the cytotoxicity at 70.5 h was -6.12%.

Turning to `Cn1cc(CCC(=O)N2C[C@H]3CC[C@@H]2CN(Cc2ccccc2)C3)cn1`, the cytotoxicity at 70.5 h was -5.6%.

`Cc1cc(CC(=O)N2CCN(CC3CC3)[C@@H]3CS(=O)(=O)C[C@@H]32)ccc1F`: the cytotoxicity at 70.5 h was determined as 4.69%.

As to `Cc1ccc(C(=O)N2Cc3ccccc3C2)cc1N1CCNC1=O`, the cytotoxicity at 70.5 h was -6.89%.

As for `O=c1cc(CN2CCCC(CCc3c(F)cccc3F)C2)[nH]c(=O)[nH]1` (stereo not drawn), the cytotoxicity at 70.5 h was -8.15%.

Turning to `O=C1[C@H]2CC[C@H](CN(Cc3ccccc3OC(F)F)C2)N1CC1CC1`, the cytotoxicity at 70.5 h is -7.82%.

Take `COc1cccc(CCC2CCCN(C(=O)C3=NN(C)C(=O)CC3)C2)c1` (stereo not drawn): the cytotoxicity at 70.5 h was -5.36%.

Take `CN(C)c1ccc(CCNC(=O)C2CCC(=O)N(C3CCCC3)C2)cc1` (stereo not drawn): the cytotoxicity at 70.5 h is -8%.

Turning to `O=C(c1ccc[nH]1)N1CCC2(CC1)C(=O)Nc1ccccc12`, the cytotoxicity at 70.5 h is -14.9%.

Consider `COc1cccc(CC2CN(C3CCN(C(C)=O)CC3)CCO2)c1` (stereo not drawn), for which the cytotoxicity at 70.5 h is -5.79%.

Take `CCCc1n[nH]cc1C(=O)N1CCC(c2nccn2CCOC)CC1`: the cytotoxicity at 70.5 h worked out at 19%.

Take `CCS(=O)(=O)N1CCC(c2nnc(CN3CCOCC3)n2C)CC1`: the cytotoxicity at 70.5 h was -2.17%.

`Cc1nccnc1CN1CCC2(CCCN(C3CCOCC3)C2=O)C1` (stereo not drawn): the cytotoxicity at 70.5 h was -2.69%.

As for `CN(C)CCN(C)C(=O)c1cnc2c(c1)nc(-c1ccccc1Cl)n2C`, the cytotoxicity at 70.5 h was -5.91%.

Consider `Cc1cc(=O)[nH]c(CCNC(=O)C(c2ccc(F)cc2)N(C)C)n1` (stereo not drawn), for which the cytotoxicity at 70.5 h came out at 4.61%.

Consider `CCCc1cc(C(=O)N2CCCC2c2cccnc2)[nH]n1` (stereo not drawn), for which the cytotoxicity at 70.5 h is -5.97%.

For `CN1C(=O)CC(C(=O)O)C12CCN(Cc1ccc(F)cc1Cl)CC2` (stereo not drawn), the cytotoxicity at 70.5 h is -9.57%.

For `CCc1nnc(CN(C)c2nc(C(C)C)nc3c2cnn3C)o1`, the cytotoxicity at 70.5 h is -5.57%.

As to `O=C(NCc1cc(O)ncn1)C1CCOc2ccccc2C1` (stereo not drawn), the cytotoxicity at 70.5 h was -7.76%.

For the compound `Cn1c(Cn2ccnc2)nnc1C1CCCN(C2CCCCC2)C1` (stereo not drawn), the cytotoxicity at 70.5 h was -9.84%.

Consider `CCn1c(N)nc2cc(C(=O)NCCc3sccc3C)cnc21`, for which the cytotoxicity at 70.5 h is -4.44%.

Consider `COCc1cc(NCCc2ccc(F)cc2)n2nccc2n1`, for which the cytotoxicity at 70.5 h is -0.706%.

As for `CCC1c2cccn2CCN1C(=O)c1ccc2nonc2c1` (stereo not drawn), the cytotoxicity at 70.5 h is -2.25%.

`COC[C@@]12CC[C@@H](N3CCOCC3)C[C@H]1CCN(c1ncccn1)C2`: the cytotoxicity at 70.5 h is -10.2%.

On to `CC(=O)NCC1CCN(CC2CCOc3ccccc3C2)CC1` (stereo not drawn), for which the cytotoxicity at 70.5 h is -4.25%.

Take `Cc1nc(CN2CCCC(CCNS(C)(=O)=O)C2)c[nH]1` (stereo not drawn): the cytotoxicity at 70.5 h is -11.3%.

Consider `CC(=O)c1cc(CC(=O)NCc2c(F)cccc2F)cs1`, for which the cytotoxicity at 70.5 h is -7.61%.

As for `CCc1cc(N2CCCNCC2)n2nc(C)c(C)c2n1`, the cytotoxicity at 70.5 h was -5.51%.

For the compound `Cc1ncccc1OC1(C(=O)NCCNc2ccccc2)CCNCC1`, the cytotoxicity at 70.5 h is -5.68%.

With `CC(C)n1ccnc1C1CCN(C(=O)c2cc[nH]n2)CC1`, the cytotoxicity at 70.5 h was -10.9%.

Consider `Cc1cc(CN2CCOCS2(=O)=O)ccc1F`, for which the cytotoxicity at 70.5 h was -7.79%.

Consider `CCOc1ccc2[nH]c(=O)c(CN3CCC(O)CC3)cc2c1`, for which the cytotoxicity at 70.5 h is -7.88%.

As for `CC(C)(C)N1CC(C(=O)N2CCN(CCc3ccccc3)CC2)CC1=O` (stereo not drawn), the cytotoxicity at 70.5 h was -12.8%.

`CC(C)=CCN1CCC(c2nccn2Cc2cscn2)CC1`: the cytotoxicity at 70.5 h is -2.36%.

In the case of `CNC(=O)CC1CCN(Cc2nc(-c3cccc(Cl)c3)oc2C)CC1`, the cytotoxicity at 70.5 h is -7.93%.

Turning to `CSCCC1c2nc[nH]c2CCN1Cc1ccnc2ccccc12` (stereo not drawn), the cytotoxicity at 70.5 h is -12.3%.

`CCc1nc(N)sc1C(=O)N1CCCC(CCc2ccccc2C)C1` (stereo not drawn): the cytotoxicity at 70.5 h is -6.29%.

Turning to `CC(C)C1CN(c2ncc(F)cn2)CCC(=O)N1Cc1ccc(F)cc1` (stereo not drawn), the cytotoxicity at 70.5 h was -6.84%.

Regarding `CCn1nc(C(C)C)cc1C(=O)NCCCOC`, the cytotoxicity at 70.5 h is -4.05%.

Regarding `CN(C)S(=O)(=O)N1C[C@@H]2CC[C@H](C1)N(Cc1ccc3nsnc3c1)C2`, the cytotoxicity at 70.5 h is 5.66%.

As for `O=C(CCc1c[nH]cn1)N1CC[C@@H](c2ccc3ccccc3c2)[C@H](O)C1`, the cytotoxicity at 70.5 h was -8.55%.

Take `Cc1cc(C(=O)N2C[C@@H](C(=O)O)[C@H](c3ccccc3C)C2)c(C)o1`: the cytotoxicity at 70.5 h came out at 13.2%.

For the compound `CS(=O)(=O)NCc1cc2n(n1)CCCN(Cc1nc3ccccc3[nH]1)C2`, the cytotoxicity at 70.5 h was -8.44%.

Regarding `COc1ccccc1OC1(C(=O)O)CCN(c2nccnc2C)CC1`, the cytotoxicity at 70.5 h was -5.26%.

For `Cc1cc(CN2CCC(CNC(=O)c3nccc4ccccc34)C2)[nH]n1` (stereo not drawn), the cytotoxicity at 70.5 h worked out at 9.66%.

In the case of `CCCC1(CO)CCCN(c2ncccc2F)C1` (stereo not drawn), the cytotoxicity at 70.5 h was -7.06%.

Take `Cn1ncc2c(NCCOc3ccc(F)cc3)nc(C3CCCC3)nc21`: the cytotoxicity at 70.5 h was found to be 0.952%.

On to `CCCN1CCCn2nc(CNS(=O)(=O)c3cccc(C#N)c3)cc2C1`, for which the cytotoxicity at 70.5 h is -12.6%.

`O=C1N(Cc2ccccc2F)CCCC12CCN(C1CCSCC1)C2` (stereo not drawn): the cytotoxicity at 70.5 h was -4.98%.

`Cc1nsc(NC(=O)N2CCC(C(C)(C)O)CC2)n1`: the cytotoxicity at 70.5 h is -5.05%.

In the case of `COc1ncc(-c2nccn2CCN(C)C)cn1`, the cytotoxicity at 70.5 h was 9.94%.

Regarding `N#Cc1ccc(C(=O)N2CCC3(CC2)C(=O)Nc2ccccc23)cn1`, the cytotoxicity at 70.5 h was -11.7%.

For the compound `CC(=O)NC(C)CC(=O)NCc1cccnc1Oc1ccccc1C` (stereo not drawn), the cytotoxicity at 70.5 h was -6.45%.

`CCc1cc2cc(OC)c(OC)cc2nc1SCCN1CCCCC1`: the cytotoxicity at 70.5 h worked out at 1.15%.

Turning to `COc1ccc(CC(=O)N2CCC[C@@H](N)[C@@H]2c2ccccc2F)cc1`, the cytotoxicity at 70.5 h was -0.222%.

For `CN1CCN(C2CCN(C(=O)CCC3CCCC3)CC2)CC1`, the cytotoxicity at 70.5 h is -6.88%.
